Usually IC50 stands for the concentration that gives 50% inhibition.

The target of one experiment is T1, AAK1 (GST-Xa-hAAK1) (Homo sapiens, UniProt Q2M2I8).
T1 construct: made in house
T1 sequence (Q2M2I8 whole entry): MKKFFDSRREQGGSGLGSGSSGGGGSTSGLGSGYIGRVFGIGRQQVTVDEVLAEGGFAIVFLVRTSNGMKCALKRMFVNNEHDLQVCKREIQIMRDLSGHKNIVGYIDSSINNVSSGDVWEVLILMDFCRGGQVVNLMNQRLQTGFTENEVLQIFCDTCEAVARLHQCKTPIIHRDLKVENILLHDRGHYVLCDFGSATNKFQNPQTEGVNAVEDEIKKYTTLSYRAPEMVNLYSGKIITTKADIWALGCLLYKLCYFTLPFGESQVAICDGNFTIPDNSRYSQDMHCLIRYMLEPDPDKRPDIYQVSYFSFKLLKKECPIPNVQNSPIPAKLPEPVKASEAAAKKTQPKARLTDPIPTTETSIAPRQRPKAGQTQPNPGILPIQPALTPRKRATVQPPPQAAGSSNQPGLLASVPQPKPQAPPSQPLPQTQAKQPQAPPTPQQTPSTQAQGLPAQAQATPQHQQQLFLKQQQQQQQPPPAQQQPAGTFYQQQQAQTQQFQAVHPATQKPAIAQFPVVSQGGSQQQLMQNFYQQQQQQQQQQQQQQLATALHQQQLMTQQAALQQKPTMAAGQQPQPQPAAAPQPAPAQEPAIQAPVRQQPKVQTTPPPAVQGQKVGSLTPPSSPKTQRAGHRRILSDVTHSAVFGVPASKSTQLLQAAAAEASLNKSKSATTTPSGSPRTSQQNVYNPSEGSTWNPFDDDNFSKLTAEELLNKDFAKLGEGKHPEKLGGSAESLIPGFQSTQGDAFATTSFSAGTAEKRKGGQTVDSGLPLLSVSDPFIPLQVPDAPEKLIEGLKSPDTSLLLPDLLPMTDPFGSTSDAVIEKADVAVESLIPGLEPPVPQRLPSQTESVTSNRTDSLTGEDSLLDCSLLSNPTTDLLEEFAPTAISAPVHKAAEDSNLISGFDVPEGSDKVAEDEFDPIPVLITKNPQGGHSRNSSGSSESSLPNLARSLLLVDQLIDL
Description: AAK1 Kinase Assay (Caliper LabChip, fluoresceinated peptide substrate). As to conditions: AAK1 functional potency; class symbols; read-out: IC50 (nM), functional potency as IC50 ranges. It is filed as biochemical. On the procedure: The assays were performed in U-bottom 384-well plates. The final assay volume was 30 μl prepared from 15 μl additions of enzyme and substrates (fluoresceinated peptide (5-FAM)-Aha-KEEQSQITSQVTGQIGWR-NH2 and ATP) and test compounds in assay buffer (10 mM Tris-HCL pH 7.4, 10 mM MgCl2, 0.01% Tween-20 and 1.0 mM DTT). The reactions were initiated by the combination of bacterially expressed, GST-Xa-hAAK1 with substrates and test compounds. The reactions were incubated at room temperature for 3 hours and terminated by adding 60 μl of 35 mM EDTA buffer to each sample. The reactions were analyzed on the Caliper LabChip 3000 (Caliper, Hopkinton, Mass.) by electrophoretic separation of the fluorescent substrate and phosphorylated product. Inhibition data were calculated by comparison to EDTA quenched control reactions for 100% inhibition and vehicle-only reactions for 0% inhibition. The final concentration of reagents in the assays are ATP, 22 μM; (5-FAM)-Aha-KEEQSQITSQVTGQIGWR-NH2, 1.5 μM; GST-Xa-hAAK1, 3.5 nM; and DMSO, 1.6%. Dose response curves were generated to determine the concentration required inhibiting 50% of kinase activity (IC50). Compounds were dissolved at 10 mM in dimethylsulfoxide (DMSO) and evaluated at eleven concentrations. IC50 values were derived by non-linear regression analysis.
On to `CCc1cc(C(N)CC(C)C)nc2ccc(-c3ccncc3)cc12` (racemic) [Example 43, 1-(4-ethyl-6-(pyridin-4-yl)quinolin-2-yl)-3-methylbutan-1-amine], for which the IC50 lay within 11 to 100 nM.
As to `CC(C)C[C@H](N)c1cc(C#N)c2cc(-c3ccncc3)ccc2n1` (single isomer, unassigned) [Example 8], the half-inhibitory concentration (IC50) fell in the range of 1 to 10 nM.
Consider `CC(=O)Nc1cc(-c2ccc3nc(C(N)CC(C)C)ccc3c2)ccn1` (single isomer, unassigned) [Example 33, N-(4-(2-(1-amino-3-methylbutyl)quinolin-6-yl)pyridin-2-yl)acetamide], for which the half-maximal inhibitory concentration (IC50) was in the range of 1 to 10 nM.
`CC(=O)Nc1cc(-c2ccc3nc(C(N)CC(C)C)ccc3c2)ccn1` (single isomer, unassigned) [Example 34, N-(4-(2-(1-amino-3-methylbutyl)quinolin-6-yl)pyridin-2-yl)acetamide]: the IC50 is 1 to 10 nM.
The same measure, in the same setting: the figure for `NC(=O)c1cc(C(N)C2CCCCC2)nc2ccc(-c3ccncc3)cc12` (single isomer, unassigned) [Example 40, 2-(amino(cyclohexyl)methyl)-6-(pyridin-4-yl)quinoline-4-carboxamide] is 101 to 2500 nM; for `CC(=O)Nc1cc(-c2ccc3nc(C(N)CC(C)C)ccc3c2)c2ccccc2n1` (single isomer, unassigned) [Example 46, N-(2′-(1-amino-3-methylbutyl)-4,6′-biquinolin-2-yl)acetamide] it is 101 to 2500 nM.
Still for that read-out and setting: the figure for `CC(C)CC(N)c1ccc2cc(-c3cc(N)nc4ccccc34)ccc2n1` (single isomer, unassigned) [Example 48, 2′-(1-amino-3-methylbutyl)-4,6′-biquinolin-2-amine] is 101 to 2500 nM; for `CC(C)CC(N)c1ccc2cc(-c3cc(N)nc4ccccc34)ccc2n1` (single isomer, unassigned) [Example 49, 2′-(1-amino-3-methylbutyl)-4,6′-biquinolin-2-amine] it is 101 to 2500 nM.
Same read-out and setting: the result for `CC(C)CC(N)c1ccc2cc(-c3ccncc3)ccc2n1` (single isomer, unassigned; (+)) [Example 21, (+)-3-methyl-1-(6-(pyridin-4-yl)quinolin-2-yl)butan-1-amine] reads 11 to 100 nM; that for `COc1cnccc1-c1ccc2nc(C(N)CC(C)C)ccc2c1` (single isomer, unassigned; (+)) [Example 22, (+)-1-(6-(3-methoxypyridin-4-yl)quinolin-2-yl)-3-methylbutan-1-amine], 101 to 2500 nM; that for `COc1cc2nc(C(N)CC(C)C)cc(C#N)c2cc1-c1cnco1` (single isomer, unassigned; (-)) [Example 12, (−)-2-(1-Amino-3-methylbutyl)-7-methoxy-6-(oxazol-5-yl)quinoline-4-carbonitrile], 11 to 100 nM.
Take `CC(C)CC(N)c1ccc2cc(-c3ccncc3)ccc2n1` (single isomer, unassigned; (-)) [Example 20, (−)-3-methyl-1-(6-(pyridin-4-yl)quinolin-2-yl)butan-1-amine]: the IC50 lay within 11 to 100 nM.
Still for that read-out and setting: the result for `COc1cnccc1-c1ccc2nc(C(N)CC(C)C)ccc2c1` (single isomer, unassigned; (-)) [Example 23, (−)-1-(6-(3-methoxypyridin-4-yl)quinolin-2-yl)-3-methylbutan-1-amine] reads 101 to 2500 nM.
On to `CC(C)CCc1cc(O)c2cc(-c3ccncc3)ccc2n1` [Example 1, 2-Isopentyl-6-(pyridin-4-yl)quinolin-4-ol], for which the IC50 was 11 to 100 nM.
The same measure, in the same setting: the figure for `COc1cc(CCC(C)C)nc2ccc(-c3ccncc3)cc12` [Example 2, 2-Isopentyl-4-methoxy-6-(pyridin-4-yl)quinoline] is 101 to 2500 nM; for `CC(C)CCc1cc(Br)c2cc(-c3ccncc3)ccc2n1` [Example 3, 4-Bromo-2-isopentyl-6-(pyridin-4-yl)quinoline] it is 11 to 100 nM.
The same measure, in the same setting: the figure for `CC(C)CCc1ccc2cc(-c3ccncc3)ccc2n1` [Example 4, 2-Isopentyl-6-(pyridin-4-yl)quinoline] is 101 to 2500 nM; for `CC(C)CCc1cc(N(C)C)c2cc(-c3ccncc3)ccc2n1` [Example 5, 2-Isopentyl-N,N-dimethyl-6-(pyridin-4-yl)quinolin-4-amine] it is 11 to 100 nM; for `CC(C)CCc1cc(C#N)c2cc(-c3ccncc3)ccc2n1` [Example 6, 2-Isopentyl-6-(pyridin-4-yl)quinoline-4-carbonitrile] it is 11 to 100 nM.
Same read-out and setting: the figure for `COc1cc2nc(CCC(C)C)cc(O)c2cc1-c1cnco1` [Example 9, 2-Isopentyl-7-methoxy-6-(oxazol-5-yl)quinolin-4-ol] is 11 to 100 nM; for `COc1cc2nc(CCC(C)C)cc(Br)c2cc1-c1cnco1` [Example 10, 5-(4-Bromo-2-isopentyl-7-methoxyquinolin-6-yl)oxazole] it is 11 to 100 nM.
Regarding `COc1cc2nc(CCC(C)C)cc(C#N)c2cc1-c1cnco1` [Example 11, 2-Isopentyl-7-methoxy-6-(oxazol-5-yl)quinoline-4-carbonitrile], the IC50 was 11 to 100 nM.
The same measure, in the same setting: the result for `Cc1nc2ccc(-c3ccncc3)cc2c(O)c1CC(C)C` [Example 14, 3-Isobutyl-2-methyl-6-(pyridin-4-yl)quinolin-4-ol] reads 101 to 2500 nM.
Consider `CC(C)Cc1cnc2ccc(-c3ccncc3)cc2c1O` [Example 15, 3-Isobutyl-6-(pyridin-4-yl)quinolin-4-ol], for which the IC50 was 101 to 2500 nM.
Still for that read-out and setting: the figure for `CC(C)CCc1nc2ccc(-c3ccncc3)cc2c(O)c1Br` [Example 16, 3-Bromo-2-isopentyl-6-(pyridin-4-yl)quinolin-4-ol] is 11 to 100 nM; for `CC(C)CCc1nc2ccc(-c3ccncc3)cc2cc1C(N)=O` [Example 17, 2-Isopentyl-6-(pyridin-4-yl)quinoline-3-carboxamide] it is 101 to 2500 nM; for `CC(C)CCc1nc2ccc(-c3ccncc3)cc2cc1C#N` [Example 18, 2-Isopentyl-6-(pyridin-4-yl)quinoline-3-carbonitrile] it is 101 to 2500 nM.
On the same count and under the same terms, the result for `CC(C)CC(=O)c1ccc2cc(-c3ccncc3)ccc2n1` [Example 19, 3-methyl-1-(6-(pyridin-4-yl)quinolin-2-yl)butan-1-one] reads 101 to 2500 nM; that for `COc1cc(-c2ccc3nc(C(N)CC(C)C)ccc3c2)ccn1` (stereo not drawn) [Example 24], 101 to 2500 nM.
As for `CC(C)CC(N)c1ccc2cc(-c3ccnc4[nH]ccc34)ccc2n1` (stereo not drawn) [Example 25, 1-(6-(1H-pyrrolo[2,3-b]pyridin-4-yl)quinolin-2-yl)-3-methylbutan-1-amine], the IC50 fell in the range of 1 to 10 nM.
On the same count and under the same terms, the figure for `CC(C)CC(N)c1ccc2cc(-c3ccnc4ccccc34)ccc2n1` (stereo not drawn) [Example 26, 1-([4,6′-biquinolin]-2′-yl)-3-methylbutan-1-amine] is 11 to 100 nM; for `CC(C)CC(N)c1ccc2cc(-c3ccc4cnccc4c3)ccc2n1` (stereo not drawn) [Example 27, 1-(6-(isoquinolin-6-yl)quinolin-2-yl)-3-methylbutan-1-amine] it is 101 to 2500 nM; for `CC(C)CC(N)c1ccc2cc(-c3ccnc(N(C)C)n3)ccc2n1` (stereo not drawn) [Example 28, 4-(2-(1-amino-3-methylbutyl)quinolin-6-yl)-N,N-dimethylpyrimidin-2-amine] it is 11 to 100 nM.
Still for that read-out and setting: the figure for `CC(C)CC(N)c1ccc2cc(-c3ccnc(N)c3)ccc2n1` (stereo not drawn) [Example 29, 4-(2-(1-amino-3-methylbutyl)quinolin-6-yl)pyridin-2-amine] is 1 to 10 nM; for `CC(=O)Nc1cc(-c2ccc3nc(C(=O)CC(C)C)ccc3c2)ccn1` [Example 30, N-(4-(2-(3-methylbutanoyl)quinolin-6-yl)pyridin-2-yl)acetamide] it is 101 to 2500 nM; for `CC(C)CCc1cc(=S)c2cc(-c3ccncc3)ccc2[nH]1` [Example 31, 2-isopentyl-6-(pyridin-4-yl)quinoline-4(1H)-thione] it is 11 to 100 nM.
Turning to `CC(C)CC(OCC(F)(F)F)c1ccc2cc(-c3ccncc3)ccc2n1` (stereo not drawn) [Example 32, 2-(3-methyl-1-(2,2,2-trifluoroethoxy)butyl)-6-(pyridin-4-yl)quinoline], the IC50 lay within 101 to 2500 nM.
The same measure, in the same setting: the figure for `CC(C)CC(N)c1ccc2cc(-c3ccnc(NC(=O)c4cccc(F)c4)c3)ccc2n1` (stereo not drawn) [Example 35, N-(4-(2-(1-amino-3-methylbutyl)quinolin-6-yl)pyridin-2-yl)-3-fluorobenzamide] is 11 to 100 nM.

The same experiment, now with this note: AAK1 functional potency; numeric values; read-out: IC50 (nM), functional potency.
Consider `CC(C)C[C@@H](N)c1cc(C#N)c2cc(-c3ccncc3)ccc2n1` (single isomer, unassigned) [Example 7], for which the concentration for half-maximal inhibition (IC50) was found to be 12 nM.
On the same count and under the same terms, the figure for `NC(=O)c1cc(C(N)C2CCCCC2)nc2ccc(-c3ccncc3)cc12` (single isomer, unassigned) [Example 39, 2-(amino(cyclohexyl)methyl)-6-(pyridin-4-yl)quinoline-4-carboxamide] is 54 nM.
As for `CC(=O)Nc1cc(-c2ccc3nc(C(N)CC(C)C)ccc3c2)c2ccccc2n1` (single isomer, unassigned) [Example 47, N-(2′-(1-amino-3-methylbutyl)-4,6′-biquinolin-2-yl)acetamide], the 50% inhibitory concentration (IC50) was 1200 nM.
The same measure, in the same setting: the figure for `COc1cc2nc(C(N)CC(C)C)cc(C#N)c2cc1-c1cnco1` (single isomer, unassigned; (+)) [Example 13, (+)-2-(1-Amino-3-methylbutyl)-7-methoxy-6-(oxazol-5-yl)quinoline-4-carbonitrile] is 4.1 nM.

(Values after patent publication US9932320B2 (BRISTOL-MYERS SQUIBB COMPANY, priority 2014, dated 2018).)
